Data taken from patent US9409884B2 (Rigel Pharmaceuticals, Inc., priority 2012, dated 2016).

Molecular target: AMPK
Test: AMPK activation, enzyme-linked immunosorbent assay
Format: biochemical
How it was run: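 AMPK activation by test compounds was measured by enzyme-linked immunosorbent assay.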

Q: How did the EC50 (Table 12, compounds of Table 5) turn out when `N#Cc1ccc(CN2CCC(NC(=O)c3cccc(OC4CCN(Cc5ccc(C#N)c(F)c5)CC4)c3)CC2)cc1` [Compound 5-120, 3-(1-(4-cyano-3-fluorobenzyl)piperidin-4-yloxy)-N-(1-(4-cyanobenzyl)piperidin-4-yl)benzamide] was run?
A: < 1000 nM

Q: For `CC(C)Oc1ccc(CN2CCC(Oc3cccc(C(=O)NC4CCN(Cc5ccc(C#N)cc5)CC4)c3)CC2)cc1` [Compound 5-121, N-(1-(4-cyanobenzyl)piperidin-4-yl)-3-(1-(4-isopropoxybenzyl)piperidin-4-yloxy)benzamide], which EC50 (Table 12, compounds of Table 5) is on record?
A: < 1000 nM

Q: Which EC50 (Table 12, compounds of Table 5) does the source give for `N#Cc1ccc(CN2CCC(NC(=O)c3cccc(OC4CCN(Cc5cnn(-c6ccc(F)cc6)c5)CC4)c3)CC2)cc1` [Compound 5-122, N-(1-(4-cyanobenzyl)piperidin-4-yl)-3-(1-((1-(4-fluorophenyl)-1H-pyrazol-4-yl)methyl)piperidin-4-yloxy)benzamide] here?
A: < 1000 nM

Q: With `N#Cc1ccc(CN2CCC(NC(=O)c3cccc(OC4CCN(Cc5ccc(OC(F)(F)F)cc5)CC4)c3)CC2)cc1` [Compound 5-123, N-(1-(4-cyanobenzyl)piperidin-4-yl)-3-(1-(4-(trifluoromethoxy)benzyl)piperidin-4-yloxy)benzamide] as the compound, how does the EC50 (Table 12, compounds of Table 5) read?
A: > 100000 nM

Q: For `N#Cc1ccc(CN2CCC(NC(=O)c3cccc(OC4CCN(Cc5ccc(C#N)cc5)CC4)c3)CC2)cc1` [Compound 5-124, N-(1-(4-cyanobenzyl)piperidin-4-yl)-3-(1-(4-cyanobenzyl)piperidin-4-yloxy)benzamide], which EC50 (Table 12, compounds of Table 5) is on record?
A: < 1000 nM

Q: How did the EC50 (Table 12, compounds of Table 5) turn out when `N#Cc1ccc(CN2CCC(NC(=O)c3cccc(OC4CCN(Cc5ccc(C(F)(F)F)cc5)CC4)c3)CC2)cc1` [Compound 5-125, N-(1-(4-cyanobenzyl)piperidin-4-yl)-3-(1-(4-(trifluoromethyl)benzyl)piperidin-4-yloxy)benzamide] was run?
A: < 1000 nM

Q: `N#Cc1ccc(CN2CCC(NC(=O)c3cccc(O[C@@H]4CCN(Cc5ccc(C(F)(F)F)cc5)C[C@H]4F)c3)CC2)cc1` [Compound 5-126, N-(1-(4-cyanobenzyl)piperidin-4-yl)-3-((3,4-trans)-3-fluoro-1-(4-(trifluoromethyl)benzyl)piperidin-4-yloxy)benzamide] was tested. Which EC50 (Table 12, compounds of Table 5) did it give?
A: < 1000 nM

Q: For `CC(C)Oc1ccc(CN2CC[C@@H](Oc3cccc(C(=O)NC4CCN(Cc5ccc(C#N)cc5)CC4)c3)[C@H](F)C2)cc1` [Compound 5-127, N-(1-(4-cyanobenzyl)piperidin-4-yl)-3-((3,4-trans)-3-fluoro-1-(4-isopropoxybenzyl)piperidin-4-yloxy)benzamide], which EC50 (Table 12, compounds of Table 5) is on record?
A: < 1000 nM

Q: With `CS(=O)(=O)c1ccc(CN2CC[C@@H](Oc3cccc(C(=O)NC4CCN(Cc5ccc(C#N)cc5)CC4)c3)[C@H](F)C2)cc1` [Compound 5-128, N-(1-(4-cyanobenzyl)piperidin-4-yl)-3-((3,4-trans)-3-fluoro-1-(4-(methylsulfonyl)benzyl)piperidin-4-yloxy)benzamide] as the compound, how does the EC50 (Table 12, compounds of Table 5) read?
A: < 1000 nM

Q: With `N#Cc1ccc(CN2CCC(NC(=O)c3cccc(O[C@@H]4CCN(Cc5ccc(C#N)c(F)c5)C[C@H]4F)c3)CC2)cc1` [Compound 5-129, 3-((3,4-trans)-1-(4-cyano-3-fluorobenzyl)-3-fluoropiperidin-4-yloxy)-N-(1-(4-cyanobenzyl)piperidin-4-yl)benzamide] as the compound, how does the EC50 (Table 12, compounds of Table 5) read?
A: < 1000 nM

Q: Which EC50 (Table 13, compounds of Table 6) does the source give for `CS(=O)(=O)c1ccc(CN2CCN(C(=O)c3ccc4cc(C(=O)NC5CCN(Cc6ccc(C#N)cc6)CC5)oc4c3)CC2)cc1` [Compound 6-2, N-(1-(4-cyanobenzyl)piperidin-4-yl)-6-(4-(4-(methylsulfonyl)benzyl)piperazine-1-carbonyl) benzofuran-2-carboxamide] here?
A: 100 to 1000 nM

Q: With `COc1ccc(CN2CCC(NC(=O)c3cc4ccc(C(=O)N5CCN(Cc6ccc(S(C)(=O)=O)cc6)CC5)cc4o3)CC2)cc1` [Compound 6-3, N-(1-(4-methoxybenzyl)piperidin-4-yl)-6-(4-(4-(methylsulfonyl)benzyl)piperazine-1-carbonyl) benzofuran-2-carboxamide] as the compound, how does the EC50 (Table 13, compounds of Table 6) read?
A: < 100 nM

Q: How did the EC50 (Table 13, compounds of Table 6) turn out when `CS(=O)(=O)c1ccc(CN2CCN(C(=O)c3ccc4cc(C(=O)NC5CCN(Cc6ccc(OC(F)(F)F)cc6)CC5)oc4c3)CC2)cc1` [Compound 6-4, 6-(4-(4-(methylsulfonyl)benzyl)piperazine-1-carbonyl)-N-(1-(4-(trifluoromethoxy)benzyl)piperidin-4-yl)benzofuran-2-carboxamide] was run?
A: 100 to 1000 nM

Q: With `COc1ccc(CN2CCC(NC(=O)c3cc4ccc(C(=O)N5CCN(Cc6ccc(S(C)(=O)=O)cc6)CC5)cc4o3)CC2)cc1F` [Compound 6-5, N-(1-(3-fluoro-4-methoxybenzyl)piperidin-4-yl)-6-(4-(4-(methylsulfonyl)benzyl)piperazine-1-carbonyl) benzofuran-2-carboxamide] as the compound, how does the EC50 (Table 13, compounds of Table 6) read?
A: < 100 nM

Q: Which EC50 (Table 13, compounds of Table 6) does the source give for `CC(=O)c1ccc(Oc2ccc(NC(=O)c3cc4ccc(C(=O)N5CCN(Cc6ccc(S(C)(=O)=O)cc6)CC5)cc4o3)cn2)cc1` [Compound 6-6, N-(6-(4-acetylphenoxy)pyridin-3-yl)-6-(4-(4-(methylsulfonyl)benzyl)piperazine-1-carbonyl) benzofuran-2-carboxamide] here?
A: < 100 nM

Q: Which EC50 (Table 13, compounds of Table 6) does the source give for `CS(=O)(=O)c1ccc(CN2CCN(C(=O)c3ccc4cc(C(=O)NC5CCN(Cc6ccc(OC(F)(F)C(F)F)cc6)CC5)oc4c3)CC2)cc1` [Compound 6-7, 6-(4-(4-(methylsulfonyl)benzyl)piperazine-1-carbonyl)-N-(1-(4-(1,1,2,2-tetrafluoroethoxy)benzyl)piperidin-4-yl)benzofuran-2-carboxamide] here?
A: < 100 nM

Q: For `CS(=O)(=O)c1ccc(CN2CCN(C(=O)c3ccc4cc(C(=O)Nc5ccc(Oc6ccc(C#N)cc6)nc5)oc4c3)CC2)cc1` [Compound 6-8, N-(6-(4-cyanophenoxy)pyridin-3-yl)-6-(4-(4-(methylsulfonyl)benzyl)piperazine-1-carbonyl) benzofuran-2-carboxamide], which EC50 (Table 13, compounds of Table 6) is on record?
A: < 100 nM

Q: Which EC50 (Table 13, compounds of Table 6) does the source give for `CS(=O)(=O)c1ccc(N2CCN(c3ccc4oc(C(=O)NC5CCN(Cc6ccc(C#N)cc6)CC5)cc4c3)CC2)cc1` [Compound 6-9, N-(1-(4-cyanobenzyl)piperidin-4-yl)-5-(4-(4-(methylsulfonyl)phenyl)piperazin-1-yl)benzofuran-2-carboxamide] here?
A: 100 to 1000 nM

Q: For `CS(=O)(=O)c1ccc(CN2CCN(c3ccc4oc(C(=O)NC5CCN(Cc6ccc(C#N)cc6)CC5)cc4c3)CC2)cc1` [Compound 6-10, N-(1-(4-cyanobenzyl)piperidin-4-yl)-5-(4-(4-(methylsulfonyl)benzyl)piperazin-1-yl)benzofuran-2-carboxamide], which EC50 (Table 13, compounds of Table 6) is on record?
A: < 100 nM

Q: Which EC50 (Table 13, compounds of Table 6) does the source give for `N#Cc1ccc(CN2CCC(NC(=O)c3cc4cc(C(=O)N5CCN(Cc6ccc(F)cc6)CC5)ccc4o3)CC2)cc1` [Compound 6-11, N-(1-(4-cyanobenzyl)piperidin-4-yl)-5-(4-(4-fluorobenzyl)piperazine-1-carbonyl)benzofuran-2-carboxamide] here?
A: < 100 nM

Q: With `O=C(Nc1ccc(Oc2ccccc2)cc1)c1cc2cc(C(=O)N3CCN(Cc4ccc(F)cc4)CC3)ccc2o1` [Compound 6-12, 5-(4-(4-fluorobenzyl)piperazine-l-carbonyl)-N-(4-phenoxyphenyl)benzofuran-2-carboxamide] as the compound, how does the EC50 (Table 13, compounds of Table 6) read?
A: < 100 nM

Q: For `N#Cc1ccc(CN2CCC(NC(=O)c3cc4cc(CN5CCN(Cc6ccc(F)cc6)CC5)ccc4o3)CC2)cc1` [Compound 6-13, N-(1-(4-cyanobenzyl)piperidin-4-yl)-5-((4-(4-fluorobenzyl)piperazin-1-yl)methyl)benzofuran-2-carboxamide], which EC50 (Table 13, compounds of Table 6) is on record?
A: < 100 nM

Q: How did the EC50 (Table 13, compounds of Table 6) turn out when `N#Cc1ccc(CN2CCC(NC(=O)c3cc4cc(CN5CCC(Oc6ccc(C#N)cc6)CC5)ccc4o3)CC2)cc1` [Compound 6-14, N-(1-(4-cyanobenzyl)piperidin-4-yl)-5-((4-(4-cyanophenoxy)piperidin-1-yl)methyl)benzofuran-2-carboxamide] was run?
A: < 100 nM

Q: For `O=C(NC1CCN(Cc2ccncc2)CC1)c1cc2cc(C(=O)N3CCC(C(=O)c4ccc(F)cc4)CC3)ccc2o1` [Compound 6-15, 5-(4-(4-fluorobenzoyl)piperidine-1-carbonyl)-N-(1-(pyridin-4-ylmethyl)piperidin-4-yl)benzofuran-2-carboxamide], which EC50 (Table 13, compounds of Table 6) is on record?
A: 100 to 1000 nM

Q: How did the EC50 (Table 13, compounds of Table 6) turn out when `N#Cc1ccc(CN2CCC(NC(=O)c3cc4cc(C(=O)N5CCC(C(=O)c6ccc(F)cc6)CC5)ccc4o3)CC2)cc1` [Compound 6-16, N-(1-(4-cyanobenzyl)piperidin-4-yl)-5-(4-(4-fluorobenzoyl)piperidine-1-carbonyl)benzofuran-2-carboxamide] was run?
A: < 100 nM

Q: Which EC50 (Table 13, compounds of Table 6) does the source give for `N#Cc1ccc(Oc2ccc(NC(=O)c3cc4cc(C(=O)N5CCC(C(=O)c6ccc(F)cc6)CC5)ccc4o3)cn2)cc1` [Compound 6-17, N-(6-(4-cyanophenoxy)pyridin-3-yl)-5-(4-(4-fluorobenzoyl)piperidine-1-carbonyl)benzofuran-2-carboxamide] here?
A: < 100 nM

Q: Which EC50 (Table 13, compounds of Table 6) does the source give for `O=C(NC1CCN(Cc2ccncc2)CC1)c1cc2cc(C(=O)N3CCC(Oc4ccc(F)cc4)CC3)ccc2o1` [Compound 6-18, 5-(4-(4-fluorophcnoxy)piperidine-1-carbonyl)-N-(1-(pyridin-4-ylmethyl)piperidin-4-yl)benzofuran-2-carboxamide] here?
A: < 100 nM

Q: `N#Cc1ccc(CN2CCC(NC(=O)c3cc4cc(C(=O)N5CCC(Oc6ccc(F)cc6)CC5)ccc4o3)CC2)cc1` [Compound 6-19, N-(1-(4-cyanobenzyl)piperidin-4-yl)-5-(4-(4-fluorophenoxy)piperidine-1-carbonyl)benzofuran-2-carboxamide] was tested. Which EC50 (Table 13, compounds of Table 6) did it give?
A: < 100 nM

Q: With `COc1ccc(CN2CCC(NC(=O)c3cc4cc(NC(=O)C5CCN(c6ccc(C#N)cc6)CC5)ccc4o3)CC2)cc1` [Compound 6-21, 1-(4-cyanophenyl)-N-(2-(1-(4-methoxybenzyl)piperidin-4-ylcarbamoyl)benzofuran-5-yl)piperidine-4-carboxamide] as the compound, how does the EC50 (Table 13, compounds of Table 6) read?
A: < 100 nM

Q: `N#Cc1ccc(N2CCC(C(=O)Nc3ccc4oc(C(=O)N5CCC(Oc6ccc(C(F)(F)F)cc6)CC5)cc4c3)CC2)cc1` [Compound 6-22, 1-(4-cyanophenyl)-N-(2-(4-(4-(trifluoromethyl)phenoxy)piperidine-1-carbonyl)benzofuran-5-yl)piperidine-4-carboxamide] was tested. Which EC50 (Table 13, compounds of Table 6) did it give?
A: < 100 nM

Q: `COc1ccc(CN2CCC(NC(=O)c3cc4cc(NC(=O)c5ccc(Oc6ccc(F)cc6)cc5)ccc4o3)CC2)cc1` [Compound 6-23, 5-(4-(4-fluorophenoxy)benzamido)-N-(1-(4-methoxybenzyl)piperidin-4-yl)benzofuran-2-carboxamide] was tested. Which EC50 (Table 13, compounds of Table 6) did it give?
A: 100 to 1000 nM
